Source: article PMC12621200, “Giving an Enzyme Scissors: Serotonin Derivatives as Potent Organocatalytic Switches for DNA Repair Enzyme OGG1” (Journal of Medicinal Chemistry, 2025)

Columns and labels:
K249A mutant OGG1 = molecular target: T1, K249A mutant OGG1 (Homo sapiens, UniProt O15527, K249A); test: AP-lyase assay on radiolabeled AP-site-containing oligonucleotide (PAGE); format: biochemical; conditions: Figure S8
T1 construct: made in house

OGG1 = molecular target: T2, OGG1 (Homo sapiens, UniProt O15527); test: Biochemical fluorescence (fluorophore-quencher) assay of OGG1 incision rate, 8-oxoA substrate; conditions: for AC50 (μM): biochemical assay of virtual screening hits (NCI samples), Table S1
T2 construct: made in house

NUDT15 = molecular target: T3, NUDT15 (Homo sapiens, UniProt Q9NV35); design: method as in Hank et al. 1 and Kehler et al. 2; conditions: reference compound; ref Hank et al. 1 and Kehler et al. 2; cited from earlier work
T3 construct: made in house
T3 sequence (Q9NV35 1-164): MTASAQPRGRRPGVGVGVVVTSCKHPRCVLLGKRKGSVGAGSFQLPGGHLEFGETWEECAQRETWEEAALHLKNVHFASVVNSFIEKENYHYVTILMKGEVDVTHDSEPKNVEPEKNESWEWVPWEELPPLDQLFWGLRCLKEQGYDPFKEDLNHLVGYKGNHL

NUDT5 = molecular target: T4, NUDT5 (Homo sapiens, UniProt Q9UKK9); design: method as in Hank et al. 1 and Kehler et al. 2; conditions: reference compound; ref Hank et al. 1 and Kehler et al. 2; cited from earlier work
T4 construct: made in house

T2 sequence (O15527 whole entry): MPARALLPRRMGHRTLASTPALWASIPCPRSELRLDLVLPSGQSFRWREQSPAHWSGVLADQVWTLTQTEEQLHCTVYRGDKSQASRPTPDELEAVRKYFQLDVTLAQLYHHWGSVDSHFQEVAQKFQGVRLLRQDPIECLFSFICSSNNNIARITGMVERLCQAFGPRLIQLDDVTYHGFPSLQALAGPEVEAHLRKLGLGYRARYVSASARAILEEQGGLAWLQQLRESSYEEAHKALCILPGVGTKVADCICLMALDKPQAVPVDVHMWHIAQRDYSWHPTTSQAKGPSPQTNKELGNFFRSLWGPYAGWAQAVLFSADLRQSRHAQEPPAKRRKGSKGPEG
T1 sequence (O15527 whole entry K249A): as the sequence (O15527 whole entry) above, with K249A counted along it

| AC50 (μM) (OGG1) | Structure (SMILES) | other results |
| --- | --- | --- |
| inactive | O=C1Nc2ccccc2C1=NCCc1c[nH]c2ccccc12 [NSC 136042] | – |
| inactive | OC1(Cc2ccccn2)c2ccccc2CC1c1ccccc1 (centres unmarked) [NSC 147943] | – |
| inactive | CCOc1ccccc1C1NC(=O)c2ccccc2N1 (centres unmarked) [NSC 158389] | – |
| inactive | O=C1NC(c2ccccc2Cl)Nc2ccccc21 (centres unmarked) [NSC 175633] | – |
| inactive | CC1(C)CC(=O)C2=C(C1)Nc1ccc(Cl)cc1NC2c1ccccc1 (centres unmarked) [NSC 186216] | – |
| inactive | O=C1CCCC2=C1C(c1ccncc1)Nc1ccccc1N2 (centres unmarked) [NSC 186218] | – |
| inactive | Cc1ccc2c(c1)Nc1ccccc1C(=O)N2 [NSC 202050] | – |
| inactive | Cl.N[C@@H](Cc1c[nH]c2ccccc12)C(=O)OCc1ccccc1 [NSC 202376] | – |
| inactive | Cc1nc(N)[nH]c(=O)c1CCCNc1cccc(C(F)(F)F)c1 [NSC 210448] | – |
| inactive | O=c1[nH]cc(Cc2cccc(OCc3ccccc3)c2)c(=O)[nH]1 [NSC 210777] | – |
| inactive | NC(=O)C1CCCN(C(=O)Nc2ccccc2F)C1 (centres unmarked) [NSC 213798] | – |
| inactive | COc1cc(OC)c(NC(=O)CC2SC(N)=NC2=O)cc1Cl (centres unmarked) [NSC 247010] | – |
| inactive | CC1=CC2C(c3ccccc3)Nc3ccccc3N2C1=O (centres unmarked) [NSC 263759] | – |
| inactive | O=C1c2ccccc2C(O)N1CCc1c[nH]c2ccccc12 (centres unmarked) [NSC 338155] | – |
| inactive | CNC1NC(=O)c2ccccc2N1Cc1ccc(F)cc1 (centres unmarked) [NSC 364164] | – |
| inactive | CCOC(=O)c1ccc2c(c1)NCc1cccc(OC)c1O2 [NSC 364889] | – |
| inactive | CC1CC2=C(C(=O)O1)C(c1ccccc1)Nc1ccccc1N2 (centres unmarked) [NSC 637579] | – |
| weak | O=C1Nc2ccccc2C12CCNC2Cc1ccccc1 (centres unmarked) [NSC 643518] | – |
| inactive | c1ccc(C2Nc3ccccc3C3OCCCC23)cc1 (centres unmarked) [NSC 645796] | – |
| inactive | COc1ccccc1N1C(=O)CSC1c1c[nH]c2ccccc12 (centres unmarked) [NSC 655348] | – |
| inactive | CC(=O)N1C(C(=O)NC2CCCCC2)CSC1c1ccccc1 (centres unmarked) [NSC 669300] | – |
| inactive | O=C(NCCc1c(-c2ccccc2)[nH]c2ccccc12)C(F)(F)F [NSC 674639] | – |
| inactive | CN(C)Cc1c(-c2ccccc2)[nH]c2ccccc12 [TH12166] | OGG1 activation, SAR result in words (OGG1): inhibited activity; IC50 (OGG1; inhibition of OGG1): 15.5 µM |

More lines, now with the values behind:

| Structure (SMILES) | AC50 (μM) (OGG1) | other results |
| --- | --- | --- |
| NCCc1c(-c2cncc(F)c2)[nH]c2ccc(O)cc12 [Compound 41, 3-(2-Aminoethyl)-2-(5-fluoropyridin-3-yl)-1H-indol-5-ol] | – | restoration of AP-lyase activity of Lys249Ala mutant (K249A mutant OGG1): failed to restore AP-lyase activity; OGG1 activation, SAR result in words (OGG1): did not significantly affect potency; AC50 (OGG1; concentration giving 50% of the incision rate of OGG1 with APE1 (2 nM) control, read-out: AC50 (CI95%)): 0.74 µM |
| Cn1c(=O)c2[nH]c(C3CCCCC3)nc2n(C)c1=O [NSC 14383] | inactive | – |
| Cc1ccc(NC(C(=O)c2ccccc2)c2ccccc2)cc1 (centres unmarked) [NSC 26933] | inactive | – |
| Cl.NC(=O)C1CCCN(Cc2c[nH]c3ccccc23)C1 (centres unmarked) [NSC 32474] | inactive | – |
| O=C(c1ccccc1)[C@H](Nc1ccc2ccccc2c1)c1ccccc1 [NSC 34924] | inactive | – |
| O=C1OC(c2c[nH]c3ccccc23)c2ccccc21 (centres unmarked) [NSC 42087] | inactive | – |
| CC(N)Cc1c[nH]c2ccc(Cl)cc12.Cl (centres unmarked) [NSC 50457] | inactive | – |
| FC(F)(F)c1nc(Nc2ccccc2)c2[nH]cnc2n1 [NSC 56385] | inactive | – |
| O=c1cc(Nc2ccc(Cl)c(Cl)c2)[nH]c(=O)[nH]1 [NSC 62573] | inactive | – |
| CC(N)Cc1c[nH]c2ccccc12 (centres unmarked) [NSC 97069] | inactive | – |
| O=C1CCCCC1C(Nc1ccccc1)c1ccccc1 (centres unmarked) [NSC 123043] | inactive | – |
| NC(=O)C(O)c1c[nH]c2ccccc12 (centres unmarked) [NSC 128331] | inactive | – |
| Cc1[nH]c2ccccc2c(=O)c1CNCc1ccccc1 [NSC 133478] | inactive | – |
| Cl.NCCc1c[nH]c2ccccc12 [NSC 522258] | inactive | – |
| CC(=O)C1CC(C)=CCC12C(=O)Nc1ccccc12 (centres unmarked) [NSC 642717] | inactive | – |
| O=C(c1ccc2[nH]ccc2c1)N1CCN(S(=O)(=O)c2ccc3[nH]c(=O)oc3c2)CC1 [TH1760] | – | Reference inhibition (NUDT15): 96% |
| Cn1c(=O)c2c(nc(N3CCNCC3)n2Cc2nnc(-c3ccc(Cl)c(Cl)c3)o2)n(C)c1=O [TH5427] | – | Reference inhibition (NUDT5): 99% |
